Laboratory results: ChEMBL document CHEMBL4725218, “Deep Learning Enhancing Kinome-Wide Polypharmacology Profiling: Model Construction and Experiment Validation” (J Med Chem, 2020)

Tests used:
[1] = biological target: Vascular endothelial growth factor receptor 2 (Homo sapiens) (UniProt P35968); test: Inhibition of human VEGFR2 assessed as remaining enzyme activity at 0.1 uM
[2] = biological target: Serine/threonine-protein kinase B-raf (Homo sapiens) (UniProt P15056); test: Inhibition of human B-Raf assessed as remaining enzyme activity at 1 uM
[3] = biological target: BDNF/NT-3 growth factors receptor (Homo sapiens) (UniProt Q16620); test: Inhibition of human TRKB assessed as remaining enzyme activity at 0.1 uM
[4] = biological target: Receptor-type tyrosine-protein kinase FLT3 (Homo sapiens) (UniProt P36888); test: Inhibition of human FLT3 assessed as remaining enzyme activity at 1 uM
[5] = biological target: T1, Ephrin type-A receptor 8 (Homo sapiens) (UniProt P29322); test: Inhibition of human EphA8 assessed as remaining enzyme activity at 0.1 uM
T1 sequence (whole entry): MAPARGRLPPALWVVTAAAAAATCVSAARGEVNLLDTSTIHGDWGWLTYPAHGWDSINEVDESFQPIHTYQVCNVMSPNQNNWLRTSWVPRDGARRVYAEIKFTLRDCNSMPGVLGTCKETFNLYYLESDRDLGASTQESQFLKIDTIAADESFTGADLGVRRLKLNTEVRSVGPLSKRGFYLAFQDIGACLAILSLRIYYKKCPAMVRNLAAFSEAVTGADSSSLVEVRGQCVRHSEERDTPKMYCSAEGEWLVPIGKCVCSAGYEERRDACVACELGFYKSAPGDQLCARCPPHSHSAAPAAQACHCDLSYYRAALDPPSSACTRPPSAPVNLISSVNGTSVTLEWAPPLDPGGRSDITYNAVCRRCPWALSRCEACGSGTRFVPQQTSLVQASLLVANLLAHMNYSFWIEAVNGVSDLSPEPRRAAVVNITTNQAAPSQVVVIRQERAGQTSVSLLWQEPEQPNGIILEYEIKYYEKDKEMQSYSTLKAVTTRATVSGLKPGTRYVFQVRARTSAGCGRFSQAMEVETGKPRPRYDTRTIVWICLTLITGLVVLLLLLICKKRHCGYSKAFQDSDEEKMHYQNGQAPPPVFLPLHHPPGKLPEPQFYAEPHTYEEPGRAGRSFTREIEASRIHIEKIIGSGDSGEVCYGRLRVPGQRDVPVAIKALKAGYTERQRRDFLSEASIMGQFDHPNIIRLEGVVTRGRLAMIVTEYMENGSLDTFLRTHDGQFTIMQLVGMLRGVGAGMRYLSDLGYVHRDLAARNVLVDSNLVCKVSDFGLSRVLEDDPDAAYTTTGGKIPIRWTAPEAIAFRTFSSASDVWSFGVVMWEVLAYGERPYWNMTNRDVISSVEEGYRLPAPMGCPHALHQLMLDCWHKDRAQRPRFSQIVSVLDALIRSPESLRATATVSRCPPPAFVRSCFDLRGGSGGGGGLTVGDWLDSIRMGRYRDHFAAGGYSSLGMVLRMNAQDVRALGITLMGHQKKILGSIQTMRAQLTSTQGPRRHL

[6] = biological target: Platelet-derived growth factor receptor beta (Homo sapiens) (UniProt P09619); test: Inhibition of human PDGFRbeta assessed as remaining enzyme activity at 1 uM
[7] = biological target: BDNF/NT-3 growth factors receptor (Homo sapiens) (UniProt Q16620); test: Inhibition of human TRKB assessed as remaining enzyme activity at 1 uM
[8] = biological target: NT-3 growth factor receptor (Homo sapiens) (UniProt Q16288); test: Inhibition of human TRKC assessed as remaining enzyme activity at 0.1 uM
[9] = biological target: Vascular endothelial growth factor receptor 2 (Homo sapiens) (UniProt P35968); test: Inhibition of human VEGFR2 assessed as remaining enzyme activity at 1 uM
[10] = biological target: Tyrosine-protein kinase FRK (Homo sapiens) (UniProt P42685); test: Inhibition of human PTK5 assessed as remaining enzyme activity at 1 uM
[11] = biological target: RAF proto-oncogene serine/threonine-protein kinase (Homo sapiens) (UniProt P04049); test: Inhibition of human RAF1 assessed as remaining enzyme activity at 0.01 uM
[12] = biological target: BDNF/NT-3 growth factors receptor (Homo sapiens) (UniProt Q16620); test: Inhibition of human TRKB assessed as remaining enzyme activity at 0.01 uM
[13] = biological target: Mitogen-activated protein kinase 14 (Homo sapiens) (UniProt Q16539); test: Inhibition of human p38alpha assessed as remaining enzyme activity at 1 uM
[14] = biological target: Platelet-derived growth factor receptor alpha (Homo sapiens) (UniProt P16234); test: Inhibition of human PDGFRAlpha assessed as remaining enzyme activity at 1 uM
[15] = biological target: Vascular endothelial growth factor receptor 2 (Homo sapiens) (UniProt P35968); test: Inhibition of human VEGFR2 assessed as remaining enzyme activity at 0.01 uM
[16] = biological target: Mitogen-activated protein kinase kinase kinase kinase 5 (Homo sapiens) (UniProt Q9Y4K4); test: Inhibition of human MAP4K5 assessed as remaining enzyme activity at 0.01 uM
[17] = biological target: NT-3 growth factor receptor (Homo sapiens) (UniProt Q16288); test: Inhibition of human TRKC assessed as remaining enzyme activity at 0.01 uM
[18] = biological target: Tyrosine-protein kinase ABL1 (Mus musculus) (UniProt P00520); test: Inhibition of mouse Abl assessed as remaining enzyme activity at 0.1 uM
[19] = biological target: T2, Muscle, skeletal receptor tyrosine-protein kinase (Homo sapiens) (UniProt O15146); test: Inhibition of human MuSK assessed as remaining enzyme activity at 0.01 uM
T2 sequence (whole entry): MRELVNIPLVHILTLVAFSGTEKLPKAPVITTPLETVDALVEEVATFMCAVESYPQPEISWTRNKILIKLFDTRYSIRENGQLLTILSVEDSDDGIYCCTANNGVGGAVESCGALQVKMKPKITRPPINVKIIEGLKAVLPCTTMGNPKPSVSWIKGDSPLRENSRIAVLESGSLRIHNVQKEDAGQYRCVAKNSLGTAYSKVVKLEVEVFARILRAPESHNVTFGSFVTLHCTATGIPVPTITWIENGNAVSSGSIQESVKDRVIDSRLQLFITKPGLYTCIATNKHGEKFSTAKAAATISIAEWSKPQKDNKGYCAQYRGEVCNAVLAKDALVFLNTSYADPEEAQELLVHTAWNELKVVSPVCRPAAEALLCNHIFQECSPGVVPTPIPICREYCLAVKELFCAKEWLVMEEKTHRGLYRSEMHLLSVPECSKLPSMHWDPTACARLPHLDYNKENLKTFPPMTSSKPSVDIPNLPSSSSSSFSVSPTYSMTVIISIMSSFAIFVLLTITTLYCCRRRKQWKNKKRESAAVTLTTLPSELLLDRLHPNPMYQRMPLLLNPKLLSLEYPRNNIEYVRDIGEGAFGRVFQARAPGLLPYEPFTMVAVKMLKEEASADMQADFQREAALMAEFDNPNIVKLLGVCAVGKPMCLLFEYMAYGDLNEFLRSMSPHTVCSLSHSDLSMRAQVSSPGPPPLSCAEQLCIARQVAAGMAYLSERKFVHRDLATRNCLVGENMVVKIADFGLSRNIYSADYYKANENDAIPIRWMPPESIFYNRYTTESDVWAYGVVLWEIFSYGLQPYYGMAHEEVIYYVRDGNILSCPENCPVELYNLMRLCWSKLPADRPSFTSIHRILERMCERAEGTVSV

[20] = biological target: Tyrosine-protein kinase FRK (Homo sapiens) (UniProt P42685); test: Inhibition of human PTK5 assessed as remaining enzyme activity at 0.1 uM

Vascular endothelial growth factor receptor 2 (Homo sapiens), sequence (P35968 whole entry): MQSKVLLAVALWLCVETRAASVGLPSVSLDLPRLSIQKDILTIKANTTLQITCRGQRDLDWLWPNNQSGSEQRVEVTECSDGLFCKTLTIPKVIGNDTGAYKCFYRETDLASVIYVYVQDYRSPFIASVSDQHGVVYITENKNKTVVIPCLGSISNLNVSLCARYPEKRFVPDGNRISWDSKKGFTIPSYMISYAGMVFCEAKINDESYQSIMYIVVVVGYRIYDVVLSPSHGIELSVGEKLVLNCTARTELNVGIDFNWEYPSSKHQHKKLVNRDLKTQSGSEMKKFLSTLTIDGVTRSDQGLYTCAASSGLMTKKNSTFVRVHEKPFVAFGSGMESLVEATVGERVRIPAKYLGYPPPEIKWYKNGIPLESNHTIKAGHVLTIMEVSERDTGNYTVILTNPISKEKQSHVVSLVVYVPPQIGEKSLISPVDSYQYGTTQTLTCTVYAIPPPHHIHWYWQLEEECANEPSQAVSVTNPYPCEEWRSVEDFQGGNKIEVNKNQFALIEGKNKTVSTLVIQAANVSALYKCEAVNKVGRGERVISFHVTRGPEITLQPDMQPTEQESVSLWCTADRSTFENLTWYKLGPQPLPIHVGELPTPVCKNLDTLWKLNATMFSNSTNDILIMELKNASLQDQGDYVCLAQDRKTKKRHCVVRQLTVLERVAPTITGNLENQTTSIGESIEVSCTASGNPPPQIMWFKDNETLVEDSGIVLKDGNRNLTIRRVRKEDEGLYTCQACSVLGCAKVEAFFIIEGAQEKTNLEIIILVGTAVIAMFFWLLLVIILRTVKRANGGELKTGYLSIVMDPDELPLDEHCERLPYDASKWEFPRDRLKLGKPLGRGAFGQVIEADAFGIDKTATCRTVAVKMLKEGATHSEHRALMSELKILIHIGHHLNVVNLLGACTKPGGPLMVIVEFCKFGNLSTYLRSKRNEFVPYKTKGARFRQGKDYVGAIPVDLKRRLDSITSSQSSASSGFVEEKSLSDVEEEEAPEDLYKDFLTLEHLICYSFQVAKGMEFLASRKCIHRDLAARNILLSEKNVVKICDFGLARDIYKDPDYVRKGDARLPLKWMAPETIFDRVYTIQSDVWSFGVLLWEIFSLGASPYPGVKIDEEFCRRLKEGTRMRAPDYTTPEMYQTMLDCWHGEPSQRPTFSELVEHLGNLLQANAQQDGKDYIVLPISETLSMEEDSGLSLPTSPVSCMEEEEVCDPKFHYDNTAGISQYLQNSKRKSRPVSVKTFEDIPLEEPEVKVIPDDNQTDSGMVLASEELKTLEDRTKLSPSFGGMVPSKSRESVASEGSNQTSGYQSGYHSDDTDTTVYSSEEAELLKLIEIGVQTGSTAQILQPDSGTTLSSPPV
BDNF/NT-3 growth factors receptor (Homo sapiens), sequence (Q16620 32-822 limits assumed): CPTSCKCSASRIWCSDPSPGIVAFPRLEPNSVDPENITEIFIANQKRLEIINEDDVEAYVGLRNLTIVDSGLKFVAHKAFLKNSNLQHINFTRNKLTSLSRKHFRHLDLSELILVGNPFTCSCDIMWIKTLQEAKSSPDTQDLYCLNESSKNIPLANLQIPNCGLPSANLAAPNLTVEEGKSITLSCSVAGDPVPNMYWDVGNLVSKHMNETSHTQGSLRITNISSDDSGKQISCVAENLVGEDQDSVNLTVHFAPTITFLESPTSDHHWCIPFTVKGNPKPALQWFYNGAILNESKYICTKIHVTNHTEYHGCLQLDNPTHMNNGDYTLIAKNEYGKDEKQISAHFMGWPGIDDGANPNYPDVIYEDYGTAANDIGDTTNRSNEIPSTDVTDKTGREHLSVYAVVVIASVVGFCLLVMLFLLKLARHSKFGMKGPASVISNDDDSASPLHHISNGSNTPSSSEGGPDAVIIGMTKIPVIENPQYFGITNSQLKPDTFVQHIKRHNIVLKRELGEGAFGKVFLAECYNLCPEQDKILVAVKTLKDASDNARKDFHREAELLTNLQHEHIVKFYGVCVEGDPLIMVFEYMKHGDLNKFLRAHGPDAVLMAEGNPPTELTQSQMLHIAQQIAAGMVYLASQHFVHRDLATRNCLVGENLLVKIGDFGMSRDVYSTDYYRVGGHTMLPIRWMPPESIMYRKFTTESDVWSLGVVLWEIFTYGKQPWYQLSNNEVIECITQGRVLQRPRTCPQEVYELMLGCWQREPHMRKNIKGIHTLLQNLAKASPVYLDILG
Tyrosine-protein kinase FRK (Homo sapiens), sequence (P42685 whole entry): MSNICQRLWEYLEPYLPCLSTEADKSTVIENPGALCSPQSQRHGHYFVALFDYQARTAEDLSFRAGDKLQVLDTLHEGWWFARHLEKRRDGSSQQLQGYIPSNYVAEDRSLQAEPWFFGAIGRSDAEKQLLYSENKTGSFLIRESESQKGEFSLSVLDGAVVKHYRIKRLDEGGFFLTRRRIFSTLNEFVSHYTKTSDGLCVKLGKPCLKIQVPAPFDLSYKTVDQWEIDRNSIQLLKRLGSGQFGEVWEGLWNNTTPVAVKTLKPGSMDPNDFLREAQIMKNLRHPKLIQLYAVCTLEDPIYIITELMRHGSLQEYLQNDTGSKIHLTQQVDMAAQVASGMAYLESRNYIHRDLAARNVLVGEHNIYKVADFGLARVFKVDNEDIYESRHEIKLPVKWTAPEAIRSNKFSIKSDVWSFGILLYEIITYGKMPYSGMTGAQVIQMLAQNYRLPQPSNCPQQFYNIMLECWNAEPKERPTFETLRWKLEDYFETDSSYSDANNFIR
NT-3 growth factor receptor (Homo sapiens), sequence (Q16288 32-839 limits assumed): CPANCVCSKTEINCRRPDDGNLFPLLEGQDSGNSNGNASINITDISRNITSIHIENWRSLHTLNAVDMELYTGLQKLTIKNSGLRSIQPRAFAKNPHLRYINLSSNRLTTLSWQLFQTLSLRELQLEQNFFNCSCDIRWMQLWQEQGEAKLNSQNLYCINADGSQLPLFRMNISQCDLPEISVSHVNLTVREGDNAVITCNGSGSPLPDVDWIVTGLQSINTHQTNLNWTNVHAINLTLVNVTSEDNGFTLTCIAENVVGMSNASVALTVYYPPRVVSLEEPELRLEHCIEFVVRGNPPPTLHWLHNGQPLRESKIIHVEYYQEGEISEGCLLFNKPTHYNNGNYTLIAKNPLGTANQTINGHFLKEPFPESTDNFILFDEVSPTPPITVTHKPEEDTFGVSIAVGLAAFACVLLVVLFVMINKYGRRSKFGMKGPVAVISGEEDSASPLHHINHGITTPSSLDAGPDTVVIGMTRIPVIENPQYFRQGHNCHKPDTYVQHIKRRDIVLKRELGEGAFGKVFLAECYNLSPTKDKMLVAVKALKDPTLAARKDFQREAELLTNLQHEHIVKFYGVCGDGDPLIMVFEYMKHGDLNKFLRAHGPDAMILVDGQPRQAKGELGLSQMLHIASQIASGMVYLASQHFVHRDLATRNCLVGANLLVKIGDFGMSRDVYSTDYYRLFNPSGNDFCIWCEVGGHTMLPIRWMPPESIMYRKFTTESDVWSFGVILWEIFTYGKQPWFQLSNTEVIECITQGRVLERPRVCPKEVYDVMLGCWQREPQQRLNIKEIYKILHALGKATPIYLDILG
Tyrosine-protein kinase ABL1 (Mus musculus), sequence (P00520 whole entry): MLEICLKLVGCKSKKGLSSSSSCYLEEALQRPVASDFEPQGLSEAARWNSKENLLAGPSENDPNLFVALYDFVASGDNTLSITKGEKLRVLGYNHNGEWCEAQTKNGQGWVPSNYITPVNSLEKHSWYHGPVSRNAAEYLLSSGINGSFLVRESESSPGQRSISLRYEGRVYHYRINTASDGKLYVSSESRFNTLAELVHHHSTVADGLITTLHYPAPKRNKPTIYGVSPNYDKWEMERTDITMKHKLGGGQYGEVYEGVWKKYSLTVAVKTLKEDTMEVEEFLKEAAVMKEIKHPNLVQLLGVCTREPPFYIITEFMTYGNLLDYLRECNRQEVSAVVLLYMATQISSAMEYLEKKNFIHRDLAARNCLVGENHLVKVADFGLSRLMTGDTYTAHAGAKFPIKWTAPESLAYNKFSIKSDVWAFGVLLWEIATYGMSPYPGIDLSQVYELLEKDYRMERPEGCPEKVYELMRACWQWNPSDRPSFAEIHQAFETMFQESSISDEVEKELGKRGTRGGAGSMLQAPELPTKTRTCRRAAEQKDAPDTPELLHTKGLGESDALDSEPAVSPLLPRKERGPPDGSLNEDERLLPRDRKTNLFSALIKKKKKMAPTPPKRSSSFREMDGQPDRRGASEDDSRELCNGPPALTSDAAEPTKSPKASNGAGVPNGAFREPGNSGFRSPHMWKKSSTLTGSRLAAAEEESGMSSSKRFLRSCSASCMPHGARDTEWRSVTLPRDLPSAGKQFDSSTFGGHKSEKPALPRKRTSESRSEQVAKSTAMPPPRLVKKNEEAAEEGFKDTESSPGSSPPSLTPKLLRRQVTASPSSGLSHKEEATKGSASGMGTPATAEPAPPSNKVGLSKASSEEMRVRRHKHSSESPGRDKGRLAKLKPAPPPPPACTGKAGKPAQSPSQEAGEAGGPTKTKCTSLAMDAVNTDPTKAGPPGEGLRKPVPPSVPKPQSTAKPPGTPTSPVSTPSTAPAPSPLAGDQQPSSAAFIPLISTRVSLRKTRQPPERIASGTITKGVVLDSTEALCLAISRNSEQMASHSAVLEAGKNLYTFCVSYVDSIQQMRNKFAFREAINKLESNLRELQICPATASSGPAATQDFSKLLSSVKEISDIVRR
Mitogen-activated protein kinase 14 (Homo sapiens), sequence (Q16539 whole entry): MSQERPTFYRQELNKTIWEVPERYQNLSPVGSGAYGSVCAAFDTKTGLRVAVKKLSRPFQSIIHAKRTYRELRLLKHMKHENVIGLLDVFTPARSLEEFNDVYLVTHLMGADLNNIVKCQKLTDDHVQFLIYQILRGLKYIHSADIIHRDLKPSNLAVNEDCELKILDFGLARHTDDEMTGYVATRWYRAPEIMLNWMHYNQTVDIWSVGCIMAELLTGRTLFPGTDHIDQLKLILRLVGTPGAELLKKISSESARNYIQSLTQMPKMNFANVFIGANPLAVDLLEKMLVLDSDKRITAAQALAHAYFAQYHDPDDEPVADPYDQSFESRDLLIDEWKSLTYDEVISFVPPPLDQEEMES

CNC(=O)c1cc(Oc2ccc(NC(=O)Nc3ccc(Cl)c(C(F)(F)F)c3)c(F)c2)ccn1
Activity [1]: 19% | Activity [2]: 8% | Activity [3]: 53% | Activity [4]: 31% | Activity [5]: 44% | Activity [6]: 55% | Activity [7]: 1% | Activity [8]: 17% | Activity [9]: 17% | Activity [10]: 3% | Activity [11]: 93% | Activity [12]: 100% | Activity [13]: -6% | Activity [14]: 35% | Activity [15]: 68% | Activity [16]: 104% | Activity [17]: 54% | Activity [18]: -7% | Activity [19]: 89% | Activity [20]: 18%
